Laboratory results as given in article PMC6297782, “DNA-Mediated Interferon Signature Induction by SLE Serum Occurs in Monocytes Through Two Pathways: A Mechanism to Inhibit Both Pathways” (Frontiers in Immunology, 2018).

Experiments:
primary human monocytes = assay: DWEYS internalization into monocytes (ImageStream); assay type: cell-based; conditions: 20 min
Protocol: Primary human monocytes were incubated for 20 min with biotin-tagged DWEYS peptide alone or with serum from SLE patients or healthy controls. Following incubation, cells were thoroughly washed and stained with anti-CD14 antibody (R&D Technologies, North Kingston, RI, USA) for 40 min at 4°C. Cells were then washed, fixed using 4% PFA and permeabilized using 1% Triton-X100, followed by incubation with labeled streptavidin for 40 min. Cell nuclei were counterstained with DAPI and cells were imaged using an ImageStream device (Amnis, Burlington, MA, USA).
Figure 3 DWEYS displaces DNA from immune complexes and inhibits DNA internalization into monocytes. (A) Primary human monocytes were incubated with labeled heat aggregated human lgG (hlgG, red) and either DWEYS or a blocking anti-FcRIIa antibody for 20 min. Cells were counterstained with DAPI and imaged using a laser scanning confocal microscope. (B) The graphs indicates adjusted fluorescence intensity for three experiments. (C) SLE serum was incubated with Syto 60 labeled dsDNA (5 μM), followed by DWEYS or control peptide (100 μM) for 30 min each. lgG was then isolated on protein G beads and Syto60 levels from protein G beads were quantified using LICOR scanner. OD was normalized to a standard labeled and filtered DNA. […] (D,E) Primary human monocytes were incubated with biotinylated DWEYS alone or biotinylated DWEYS and SLE serum from patients with or without anti ds DNA antibodies for 20 min. Cells were then stained for CD 14 as a membrane marker and intracellular DWEYS was tagged using fluorochrome labeled streptavidin. Intracellular DWEYS was quantified using lmageStream instrument: DWEYS fluorescence levels by flow cytometry (D) and representative ImageStream cell images (E). One representative experiment of three with similar results is shown. ^*p < 0.05; ns, not significant.

[1] = test system: HMGB1-induced ISGs, primary human monocytes; assay: ISG induction by HMGB1 in monocytes (qPCR); assay type: cell-based; conditions: HMGB1 with DWEYS or control peptide, 4 h, three independent experiments
Protocol: Human cells were obtained with approval of the Institutional Review Board of the Feinstein Institute for Medical Research. PBMCs were isolated from blood of healthy donors (New York Blood Center) by density centrifugation. Monocytes were enriched by negative selection using a human monocyte enrichment kit ([…] Technologies). Purity of monocytes (CD11b^+, CD14^+, LAIR-1^+) was determined to be >90% by flow cytometry (FACS Calibur, BD Biosciences, San Jose, CA, USA). Purified monocytes (2 × 10^6 cells/ml) were cultured in U-bottom 96-well plates in X-VIVO 15 serum free medium (Lonza) with the indicated reagents and harvested at 4–6 h later, or at the indicated times. […] Murine monocyte purity was determined to be >90%.
Total RNA was extracted from cells (1–2 × 10^6 cells per sample) with an RNeasy kit (Qiagen, Germantown, MD, USA) and cDNA was generated using an iScript cDNA synthesis kit (Bio-Rad, Hercules, CA, USA). qRT-PCR was performed on a Light Cycler 480 II (Roche, Indianapolis, IN, USA). […] The relative induction was calculated by 2^−ΔΔCt.
(B) Inhibition curve used for IC50 evaluation as noted in the methods section. […] (D) Indicates adjusted fluorescence intensity for three experiments. (E) Primary human monocytes were incubated with HMGB1 and with or without DWEYS or control peptide for 4 h. lSG expression was evaluated using qPCR.

[2] = test system: human monocytes (CpG internalization); assay: FITC-CpG internalization by human monocytes, microscopy; assay type: cell-based; conditions: 37°C, 15 min (legend 20 min)
Protocol: (§1) For HMGB1 or CpG internalization assays, isolated human monocytes were cultured in 8 well-chamber-slides (Nunc, LabTek, Thermo-Fisher) in X-VIVO 15 culture medium. Cells were allowed to adhere for 2 h and then washed with PBS and incubated with AlexaFluor-594 HMGB1 or FITC-CpG with or without DWEYS for 15 min. Nuclei were counterstained using DAPI. Cells were washed three times with cold PBS and then fixed with 4% PFA and mounted using Dako mounting solution (Agilnet Technologies, Santa Clara, CA, USA).
Non IC-bound DNA can also be internalized by binding to HMGB1, with the HMGB1-DNA complex binding to RAGE ([1]). […] We incubated monocytes from healthy donors with FITC labeled CpG. […] CpG is internalized chaperoned by HMGB1 binding through RAGE.
Figure 4 DWEYS binds HMGB1 and inhibits its binding to RAGE. (A) Monocytes were incubated with labeled CpG (red) and DWEYS or control peptide for 20 min. Cells were counterstained with DAPI prior to imaging. (B) Depicts adjusted fluorescence intensity for three experiments run. (C) Monocytes from C57BL6 wild type (WT) or RAGE^−/− mice were incubated with labeled CpG for 20 min and counterstained with DAPI prior to imaging. (D) Primary human monocytes were incubated with CpG and with or without DWEYS or a control peptide for 20 min. ISG expression was analyzed by qPCR. […]

HMGB1 = HMGB1 binding, surface plasmon resonance; conditions: SPR Biacore T200, HMGB1 immobilized on CM5 chip, 25°C
Protocol: A Biacore T200 apparatus (GE Healthcare Bio-Sciences, Pittsburgh, PA, USA) was used for real-time binding interaction studies. For HMGB1 and DWEYS peptide binding analyses, HMGB1 protein was immobilized onto a CM5 series chip (GE Healthcare). The HMGB1 protein was diluted to a concentration of 20 μg/mL in 10 mM sodium acetate buffer (pH = 4.5). A 1:1 mixture of N-hydroxysuccinimide and N-ethyl-N-(dimethyaminopropyl) carbodiimide was used to activate two flow-cells of the CM5 chip. […] The sample flow-cell was injected with the diluted HMGB1 at a flow rate of 10 μL/min. The HMGB1 injection was stopped when the surface plasmon resonance reached ~600 RU. For HMGB1 and DWEYS peptide kinetics assay, DWEYS peptide were sequentially injected at a flow rate of 20 μL/min for 120 s at 25°C, the dissociation time was set for 2 min. The concentrations were 16, 31.25, 62.5, 125, 250 μM. The equilibrium dissociation constant (KD) was obtained to evaluate the binding affinity by using the BIAEvaluation 2.0 software (GE Healthcare) assuming a 1:1 binding ratio. At least 3 independent experiments were performed.

[3] = test system: primary human monocytes / SLE serum-induced ISGs; assay: ISG induction by SLE serum in healthy donor monocytes (qPCR); assay type: cell-based; conditions: 4 h, two DWEYS concentrations, control peptide at the higher dose, mean ± SD of three independent experiments
[4] = test system: human monocytes (HMGB1 internalization); assay: HMGB1 internalization by human monocytes, microscopy; assay type: cell-based; conditions: AF-594-labeled HMGB1, human monocytes
Protocol: as §1
(B) Inhibition curve used for IC50 evaluation as noted in the methods section. (C,D) Human monocytes were incubated with labeled HMGB1 (red) alone (C, top panel) or HMGB1 and DWEYS (C, middle panel) or HMGB1 and control peptide (C, bottom panel) for 20 min. Cells were counterstained with DAPI and imaged using a confocal laser scanning microscope. (D) Indicates adjusted fluorescence intensity for three experiments. (E) Primary human monocytes were incubated with HMGB1 and with or without DWEYS or control peptide for 4 h. lSG expression was evaluated using qPCR.

[5] = test system: CpG-induced ISGs, primary human monocytes; assay: ISG induction by CpG in monocytes (qPCR); assay type: cell-based; conditions: CpG with or without peptide, 20 min per legend, three independent experiments
CpG:TLR9 binding = assay: Inhibition of CpG binding to TLR9, AlphaScreen; conditions: constant CpG concentration
Protocol: Binding of TLR9 to biotinylated CpG or the DWEYS peptide was assayed in a buffer consisting of 50 mM Tris-HCl pH 7.4, 100 mM NaCl, 1% ultrapure BSA, 0.01% Tween 20 using an amplified luminescent proximity assay with streptavidin-conjugated donor beads and nickel chelate acceptor beads (AlphaScreen; Perkin Elmer, Boston, MA, USA), as described before ([1]).
Figure 2 DWEYS inhibits the transfer of the interferon signature by SLE serum but is not a TLR9 antagonist. (A) Primary human monocytes were incubated with SLE serum with or without DWEYS or with control peptide for 4 h. lSG expression was evaluated by qPCR. […] (B) Assessment of DWEYS and CpG oligonucleotides binding to TLR9. Labeled TLR9 was incubated with varying concentrations of CpG or DWEYS for 30 min in room temperature. Binding was assessed using an AlphaScreen assay as described in the methods section. (C,D) Inhibition assay. Labeled TLR9 and constant, binding concentration of CpG were incubated with different concentrations of DWEYS or a control peptide at neutral (pH 7.4, C) or acidic (pH 6.25, D) condition. Binding was assessed using an AlphaScreen assay as noted in the methods section. Results are representative of three independent experiments. ^***p < 0.001, ns, not significant.

[6] = target: T1, Recombinant HMGB1 (Calmodulin Binding Protein Epitope, Cbp tagged) (UniProt P09429 1-215); assay: SPR; inhibition assay, Biacore T200; sRAGE amine-coupled to a CM5 chip (~500 RU); HMGB1 (0.5 μM) with or without DWEYS 50 to 1.6 μM injected at 30 μL/min for 60 s, 25°C; PBS + 0.05 Tween 20; conditions: both partners purified
T1 construct: high-mobility group box-1 protein (HMGB1), recombinant; The reagents also list 'reduced HMGB1'; also called high-mobility group box-1
T1 sequence (looked up): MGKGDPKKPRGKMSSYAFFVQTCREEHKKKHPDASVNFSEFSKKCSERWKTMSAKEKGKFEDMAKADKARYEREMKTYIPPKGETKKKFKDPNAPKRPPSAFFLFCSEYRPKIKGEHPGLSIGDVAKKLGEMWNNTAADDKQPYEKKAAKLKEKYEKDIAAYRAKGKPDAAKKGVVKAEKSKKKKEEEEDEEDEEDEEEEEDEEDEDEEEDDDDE

[7] = target: T1, Recombinant HMGB1 (Calmodulin Binding …); assay: SPR; Biacore T200; HMGB1 amine-coupled to a CM5 chip (~600 RU); peptide injected at 16-250 μM, 20 μL/min, 120 s, 25°C; 1:1 binding assumed; apparent KD; conditions: both partners purified

In the case of biotinylated DWEYS [labeled DWEYS], the “internalization of DWEYS, no serum” value (primary human monocytes; biotinylated DWEYS alone) is reported as “only minimal internalization”, the “internalization of DWEYS, SLE serum with high anti-DNA titer” value (primary human monocytes; biotinylated DWEYS with SLE serum with high anti-DNA antibody titer) is reported as “significant intracellular internalization of DWEYS was seen” and the “internalization of DWEYS, SLE serum lacking anti-DNA antibodies” value (primary human monocytes; biotinylated DWEYS with SLE serum with low titers of anti-DNA antibodies) is reported as “did not mediate DWEYS internalization”. The “internalization of DWEYS, healthy donor serum” value (primary human monocytes; biotinylated DWEYS with serum from healthy donors) was “only minimal internalization”.

TATAT [control peptide] was tested, and the “ISG level on HMGB1 incubation” value [1] was “increased level of ISGs, in the presence of control peptide”, the “CpG internalization (effect of peptide)” value [2] was “no effect” and the “binding to immobilized HMGB1” value (HMGB1) was “did not bind”. The “ISG induction by SLE serum (effect of peptide)” value [3] was “showed an induction of all three ISGs studied”, the “HMGB1 internalization (effect of peptide)” value ([4]; 20 min, confocal microscopy) was “no inhibition of HMGB1 internalization” and the “CpG induction of ISGs (effect of peptide)” value [5] was “failed to inhibit ISG induction”. For the same molecule, the “inhibition of CpG binding to TLR9, acidic pH” value (CpG:TLR9 binding; pH 6.25 (simulating activated endosome)) was “neither DWEYS, nor a control peptide, used at various concentrations, inhibited the binding” and the “inhibition of CpG binding to TLR9, neutral pH” value (CpG:TLR9 binding; pH 7.4) was “neither DWEYS, nor a control peptide, used at various concentrations, inhibited the binding”.

B1: DWEYS peptide (peptide)
peptide: DWEYS
notes: the biotinylated form may have been used there; also called pentapeptide DWEYS; DNA mimetope; source: synthetic peptide (GenScript)
B1 gave an IC50 [6] of 34.7 µM and a Kd [7] of 185 µM.

B2: high-mobility group box-1 (protein)
chain: MGKGDPKKPRGKMSSYAFFVQTCREEHKKKHPDASVNFSEFSKKCSERWKTMSAKEKGKFEDMAKADKARYEREMKTYIPPKGETKKKFKDPNAPKRPPSAFFLFCSEYRPKIKGEHPGLSIGDVAKKLGEMWNNTAADDKQPYEKKAAKLKEKYEKDIAAYRAKGKPDAAKKGVVKAEKSKKKKEEEEDEEDEEDEEEEEDEEDEDEEEDDDDE
modifications: left off: Calmodulin Binding Protein Epitope (Cbp), end not stated, state not stated
In the case of B2, the HMGB1 internalization alone [4] is reported as “detected in monocytes after 15–30 min in incubation”.
